Laboratory results from PubChem BioAssay AID328 (DTP/NCI, 2004).
Values joined by “and” are separate entries in the source; they are usually repeats but may differ in a detail not shown here. Identical values can stand only once. Toxic doses and inconclusive results are not listed.

Test system: BDF1 mice, P388 leukemia ip, median survival T/C
Assay: NCI In Vivo Anticancer Drug Screen. Data for tumor model P388 Leukemia (intraperitoneal) in B6D2F1 (BDF1) mice
Settings: endpoint: median survival time, higher = longer survival
In short: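 In tumour-bearing mice, survival after compound treatment is set against the vehicle group and given as a quotient.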

[1] = dose: 100.0 mg/kg/injection, schedule: Q04DX003 (ip), vehicle: saline
[2] = dose: 200.0 mg/kg/injection, schedule: Q04DX003 (ip), vehicle: saline
[3] = dose: 50.0 mg/kg/injection, schedule: Q04DX003 (ip), vehicle: saline with Tween-80
[4] = dose: 100.0 mg/kg/injection, schedule: Q04DX003 (ip), vehicle: saline with Tween-80
[5] = dose: 200.0 mg/kg/injection, schedule: Q04DX003 (ip), vehicle: saline with Tween-80
[6] = dose: 50.0 mg/kg/injection, schedule: Q01DX009 (ip), vehicle: saline with Tween-80
[7] = dose: 100.0 mg/kg/injection, schedule: Q01DX009 (ip), vehicle: saline with Tween-80
[8] = dose: 200.0 mg/kg/injection, schedule: Q01DX009 (ip), vehicle: saline with Tween-80
[9] = dose: 100.0 mg/kg/injection, schedule: Q04DX003 (ip), vehicle: other
[10] = dose: 50.0 mg/kg/injection, schedule: Q01DX009 (ip), vehicle: saline
[11] = dose: 400.0 mg/kg/injection, schedule: Q04DX003 (ip), vehicle: saline
[12] = dose: 50.0 mg/kg/injection, schedule: Q04DX003 (ip), vehicle: saline
[13] = dose: 100.0 mg/kg/injection, schedule: Q01DX009 (ip), vehicle: saline
[14] = dose: 200.0 mg/kg/injection, schedule: Q01DX009 (ip), vehicle: saline
[15] = dose: 400.0 mg/kg/injection, schedule: Q01DX009 (ip), vehicle: saline
[16] = dose: 100.0 mg/kg/injection, schedule: Q01DX001 (ip), vehicle: Klucel (hydroxypropylcellulose) (HPC)
[17] = dose: 200.0 mg/kg/injection, schedule: Q01DX001 (ip), vehicle: Klucel (hydroxypropylcellulose) (HPC)
[18] = dose: 400.0 mg/kg/injection, schedule: Q01DX001 (ip), vehicle: Klucel (hydroxypropylcellulose) (HPC)

CN(C)c1ccc(/C=C\c2ccnc3ccccc23)cc1
T/C (dose: 1.5 mg/kg/injection, schedule: Q01DX010 (ip), vehicle: saline): 100 % of control
T/C (dose: 3.0 mg/kg/injection, schedule: Q01DX010 (ip), vehicle: saline): 95 % of control
T/C (dose: 6.0 mg/kg/injection, schedule: Q01DX010 (ip), vehicle: saline): 100 % of control
T/C (dose: 12.0 mg/kg/injection, schedule: Q01DX010 (ip), vehicle: saline): 109 % of control

CCN(CC)C(=O)c1ccncc1
T/C [1]: 109 % of control
T/C [2]: 100 % of control

N#CC1C(=O)NC(=O)C(C#N)C12CCCCC2 (stereo not drawn)
T/C (dose: 50.0 mg/kg/injection, schedule: Q01DX005 (ip), vehicle: saline with Tween-80): 100 % of control
T/C [3]: 110 % of control
T/C (dose: 100.0 mg/kg/injection, schedule: Q01DX005 (ip), vehicle: saline with Tween-80): 100 % of control
T/C [4]: 120 % of control
T/C (dose: 200.0 mg/kg/injection, schedule: Q01DX005 (ip), vehicle: saline with Tween-80): 109 % of control
T/C [5]: 105 % of control

CCCCCCCCC(CO)CO
T/C [6]: 100 % of control
T/C [7]: 92 % of control
T/C [8]: 95 % of control

CCOC(=O)C(C(C)=O)C(=O)OCC
T/C (dose: 25.0 mg/kg/injection, schedule: Q04DX003 (ip), vehicle: other): 90 % of control
T/C (dose: 50.0 mg/kg/injection, schedule: Q01DX009 (ip), vehicle: other): 113 % of control
T/C (dose: 50.0 mg/kg/injection, schedule: Q04DX003 (ip), vehicle: other): 99 % of control
T/C (dose: 100.0 mg/kg/injection, schedule: Q01DX009 (ip), vehicle: other): 100 % of control
T/C [9]: 99 % of control
T/C (dose: 200.0 mg/kg/injection, schedule: Q04DX003 (ip), vehicle: other): 92 % of control
T/C (dose: 400.0 mg/kg/injection, schedule: Q01DX009 (ip), vehicle: other): 88 % of control
T/C (dose: 400.0 mg/kg/injection, schedule: Q04DX003 (ip), vehicle: other): 110 % of control

CC(=O)C1CC2C=CCC(C2)C1 (stereo not drawn)
T/C (dose: 50.0 mg/kg/injection, schedule: Q01DX001 (ip), vehicle: saline with Tween-80): 95 % of control
T/C (dose: 100.0 mg/kg/injection, schedule: Q01DX001 (ip), vehicle: saline with Tween-80): 120 % of control
T/C (dose: 200.0 mg/kg/injection, schedule: Q01DX001 (ip), vehicle: saline with Tween-80): 95 % of control

Nc1ccccc1CCc1ccccc1N
T/C [7]: 104 % of control
T/C [4]: 95 % of control
T/C [8]: 100 % of control
T/C [5]: 95 % of control
T/C (dose: 400.0 mg/kg/injection, schedule: Q01DX009 (ip), vehicle: saline with Tween-80): 100 % of control
T/C (dose: 400.0 mg/kg/injection, schedule: Q04DX003 (ip), vehicle: saline with Tween-80): 108 % of control

COc1cc2c(cc1OC)-c1cc3cc(OC)c(OC)cc3c(C)[n+]1CC2 (tested in a mixture with another compound)
T/C (dose: 12.5 mg/kg/injection, schedule: Q01DX009 (ip), vehicle: Klucel (hydroxypropylcellulose) (HPC)): 103 % of control
T/C (dose: 25.0 mg/kg/injection, schedule: Q01DX009 (ip), vehicle: saline with Tween-80): 104 % of control
T/C (dose: 50.0 mg/kg/injection, schedule: Q01DX009 (ip), vehicle: Klucel (hydroxypropylcellulose) (HPC)): 123 % of control
T/C [6]: 113 % of control
T/C [7]: 154 % of control

COc1ccc(/C=C/c2ccc3ccccc3n2)c(OC)c1
T/C [4]: 88 % of control
T/C [5]: 100 % of control

CNC(=O)C(C)C1C(=O)/C(=C(O)/C=C/C(C)=C\C(C)C2OC3(C)OC(C=CC34CO4)C2C)C(=O)N1C1CCC(O)C(C)O1 (stereo not drawn)
T/C [10]: 100 % of control
T/C (dose: 200.0 mg/kg/injection, schedule: Q01DX009 (ip), vehicle: Klucel (hydroxypropylcellulose) (HPC)): 109 % of control

COc1ccc(C(O)CN)cc1 (stereo not drawn)
T/C [1]: 98 % of control
T/C [2]: 97 % of control
T/C [11]: 96 % of control

COC(=O)C1CCN(Cc2c[nH]c3ccccc23)CC1
T/C (dose: 12.5 mg/kg/injection, schedule: Q04DX003 (ip), vehicle: saline with Tween-80): 96 % of control
T/C (dose: 25.0 mg/kg/injection, schedule: Q04DX003 (ip), vehicle: saline with Tween-80): 96 % of control
T/C [3]: 111 % of control
T/C [4]: 102 % of control

S=c1sc(-c2ccccc2)c[se]1
T/C (dose: 25.0 mg/kg/injection, schedule: Q01DX009 (ip), vehicle: saline + Tween-80 + alcohol): 107 % of control
T/C (dose: 50.0 mg/kg/injection, schedule: Q01DX009 (ip), vehicle: saline + Tween-80 + alcohol): 105 % of control

NNC(=O)c1ccc(Cl)cc1Nc1ccc(F)cc1
T/C [12]: 104 % of control
T/C [1]: 100 % of control

O=C(O)C(O)C(O)C(=O)O (stereo not drawn)
T/C [13]: 100 % of control
T/C [1]: 91 % of control
T/C [14]: 110 % of control
T/C [2]: 100 % of control
T/C [15]: 100 % of control
T/C [11]: 104 % of control

CC(=O)C(c1ccccc1)[N+](C)(C)C (stereo not drawn)
T/C [9]: 108 % of control

Cc1[nH]c(=S)[nH]c(=O)c1CN(CCO)CCO
T/C (dose: 50.0 mg/kg/injection, schedule: Q01DX001 (ip), vehicle: Klucel (hydroxypropylcellulose) (HPC)): 96 % of control
T/C [16]: 96 % of control
T/C [17]: 96 % of control

O=C1c2ccccc2C(=O)N1CC[P+](c1ccc(Cl)cc1)(c1ccc(Cl)cc1)c1ccc(Cl)cc1
T/C (dose: 0.78 mg/kg/injection, schedule: Q01DX009 (ip), vehicle: water): 103 % of control
T/C (dose: 1.56 mg/kg/injection, schedule: Q01DX009 (ip), vehicle: water): 103 % of control
T/C (dose: 3.13 mg/kg/injection, schedule: Q01DX009 (ip), vehicle: water): 103 % of control
T/C (dose: 6.25 mg/kg/injection, schedule: Q01DX009 (ip), vehicle: water): 110 % of control
T/C (dose: 12.5 mg/kg/injection, schedule: Q01DX009 (ip), vehicle: water): 103 % of control
T/C (dose: 25.0 mg/kg/injection, schedule: Q01DX009 (ip), vehicle: water): 103 % of control

S=c1[nH]c2ccccc2s1
T/C (dose: 50.0 mg/kg/injection, schedule: Q04DX003 (ip), vehicle: Klucel (hydroxypropylcellulose) (HPC)): 109 % of control
T/C [16]: 100 % of control
T/C (dose: 100.0 mg/kg/injection, schedule: Q04DX003 (ip), vehicle: Klucel (hydroxypropylcellulose) (HPC)): 100 % of control
T/C [17]: 108 % of control
T/C (dose: 200.0 mg/kg/injection, schedule: Q04DX003 (ip), vehicle: Klucel (hydroxypropylcellulose) (HPC)): 100 % of control and 123 % of control
T/C [18]: 100 % of control
T/C (dose: 400.0 mg/kg/injection, schedule: Q04DX003 (ip), vehicle: Klucel (hydroxypropylcellulose) (HPC)): 96 % of control

O=[N+]([O-])c1ccc(/C=N/c2nccs2)o1
T/C (dose: 3.12 mg/kg/injection, schedule: Q04DX003 (ip), vehicle: saline): 107 % of control
T/C (dose: 6.25 mg/kg/injection, schedule: Q04DX003 (ip), vehicle: saline): 106 % of control and 107 % of control
T/C (dose: 12.5 mg/kg/injection, schedule: Q01DX009 (ip), vehicle: saline): 92 % of control
T/C (dose: 12.5 mg/kg/injection, schedule: Q04DX003 (ip), vehicle: saline): 92 % of control and 107 % of control and 115 % of control
T/C (dose: 25.0 mg/kg/injection, schedule: Q01DX009 (ip), vehicle: saline): 90 % of control
T/C (dose: 25.0 mg/kg/injection, schedule: Q04DX003 (ip), vehicle: saline): 107 % of control and 111 % of control and 115 % of control
T/C [10]: 94 % of control
T/C [12]: 101 % of control and 107 % of control
T/C [13]: 86 % of control
T/C [1]: 109 % of control and 110 % of control
T/C [14]: 98 % of control

N#Cc1ncc(C(Cl)(Cl)Cl)nc1Cl
T/C [6]: 110 % of control
T/C [3]: 105 % of control
T/C [7]: 120 % of control
T/C [4]: 115 % of control and 118 % of control
T/C [5]: 120 % of control

Cc1ccccc1C(c1ccccc1C)c1ccccc1C(=O)O
T/C [16]: 113 % of control
T/C [13]: 100 % of control
T/C [1]: 91 % of control
T/C [17]: 109 % of control
T/C [14]: 104 % of control
T/C [2]: 100 % of control
T/C [18]: 109 % of control
T/C [15]: 95 % of control
T/C [11]: 100 % of control

CCCCCCCCC(=O)CCCCC
T/C [1]: 100 % of control
T/C [2]: 91 % of control
T/C [11]: 95 % of control
